# Measured values reported in PubChem BioAssay AID1963844 (Molecular Pharmacology Branch, DTP, NCI, 2024).
# Test system: 422866-222-R5-J1-PDC complex spheroid viability
# Assay: Anticancer human tumor 422866-222-R5-J1-PDC patient-derived pancreatic adenocarcinoma cell line growth inhibition [POLQ]
# Details: for IC50: curve of first compound; for viability, T/C: stronger effect = lower value
# Summary of the method: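 Patient-derived tumour cells were co-cultured with HUVEC and mesenchymal stem cells as multicellular spheroids at 37 °C. They were treated with POLQ inhibitors (novobiocin, ART-558, RP6685) alone or combined with other agents. Top concentrations were at or near clinical Cmax (otherwise 10 microM; SN-38 at 1 microM), decreasing in half-log steps.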
# [1] = second compound 0.0316 µM, first compound 0.0316 µM
# [2] = second compound 0.0316 µM, first compound 0.1 µM
# [3] = second compound 0.0316 µM, first compound 0.316 µM
# [4] = second compound 0.0316 µM, first compound 1 µM
# [5] = second compound 0.0316 µM, first compound 3.16 µM
# [6] = second compound 0.0316 µM, first compound 10 µM
# [7] = second compound 0.1 µM, first compound 0.0316 µM
# [8] = second compound 0.1 µM, first compound 0.1 µM
# [9] = second compound 0.1 µM, first compound 0.316 µM
# [10] = second compound 0.1 µM, first compound 1 µM
# [11] = second compound 0.1 µM, first compound 3.16 µM
# [12] = second compound 0.1 µM, first compound 10 µM
# [13] = second compound 0.316 µM, first compound 0.0316 µM
# [14] = second compound 0.316 µM, first compound 0.1 µM
# [15] = second compound 0.316 µM, first compound 0.316 µM
# [16] = second compound 0.316 µM, first compound 1 µM
# [17] = second compound 0.316 µM, first compound 3.16 µM
# [18] = second compound 0.316 µM, first compound 10 µM
# [19] = second compound 1 µM, first compound 0.0316 µM
# [20] = second compound 1 µM, first compound 0.1 µM
# [21] = second compound 1 µM, first compound 0.316 µM
# [22] = second compound 1 µM, first compound 1 µM
# [23] = second compound 1 µM, first compound 3.16 µM
# [24] = second compound 1 µM, first compound 10 µM
# [25] = second compound 3.16 µM, first compound 0.0316 µM
# [26] = second compound 3.16 µM, first compound 0.1 µM
# [27] = second compound 3.16 µM, first compound 0.316 µM
# [28] = second compound 3.16 µM, first compound 1 µM
# [29] = second compound 3.16 µM, first compound 3.16 µM
# [30] = second compound 3.16 µM, first compound 10 µM
# [31] = second compound 10 µM, first compound 0.0316 µM
# [32] = second compound 10 µM, first compound 0.1 µM
# [33] = second compound 10 µM, first compound 0.316 µM
# [34] = second compound 10 µM, first compound 1 µM
# [35] = second compound 10 µM, first compound 3.16 µM
# [36] = second compound 10 µM, first compound 10 µM
# 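Further: spheroids exposed to compounds for one week before readout.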
# 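Wherever viability, T/C is given: percent of DMSO vehicle wells luminescence so 100% = untreated viability.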
smiles,measurement,setting,value
O=C(c1cc(Cc2n[nH]c(=O)c3ccccc23)ccc1F)N1CCN(C(=O)C2CC2)CC1 + COC1C(OC(N)=O)C(O)C(Oc2ccc3c(O)c(NC(=O)c4ccc(O)c(CC=C(C)C)c4)c(=O)oc3c2C)OC1(C)C,IC50,second compound 0.0316 µM,< 31.6 nM
same,IC50,second compound 0.1 µM,< 31.6 nM
same,IC50,second compound 0.316 µM,< 31.6 nM
same,IC50,second compound 1 µM,< 31.6 nM
same,IC50,second compound 3.16 µM,< 31.6 nM
same,IC50,second compound 10 µM,< 31.6 nM
same,"viability, T/C",[1],40.5%
same,"viability, T/C",[2],40.1%
same,"viability, T/C",[3],42.3%
same,"viability, T/C",[4],38.2%
same,"viability, T/C",[5],34%
same,"viability, T/C",[6],27.5%
same,"viability, T/C",[7],40.1%
same,"viability, T/C",[8],42.5%
same,"viability, T/C",[9],41.2%
same,"viability, T/C",[10],35.4%
same,"viability, T/C",[11],36.4%
same,"viability, T/C",[12],26.3%
same,"viability, T/C",[13],43.5%
same,"viability, T/C",[14],35.9%
same,"viability, T/C",[15],35.7%
same,"viability, T/C",[16],37.9%
same,"viability, T/C",[17],31%
same,"viability, T/C",[18],27.5%
same,"viability, T/C",[19],35.9%
same,"viability, T/C",[20],32%
same,"viability, T/C",[21],37.1%
same,"viability, T/C",[22],37.4%
same,"viability, T/C",[23],27.4%
same,"viability, T/C",[24],24.5%
same,"viability, T/C",[25],39.9%
same,"viability, T/C",[26],34.6%
same,"viability, T/C",[27],38.4%
same,"viability, T/C",[28],36.7%
same,"viability, T/C",[29],33.7%
same,"viability, T/C",[30],28.3%
same,"viability, T/C",[31],38.9%
same,"viability, T/C",[32],30.9%
same,"viability, T/C",[33],35.7%
same,"viability, T/C",[34],32.9%
same,"viability, T/C",[35],29.3%
same,"viability, T/C",[36],27.8%
COc1cccc(OCCCN)c1-c1cc(Nc2cnc(C#N)cn2)n[nH]1 + Nc1ccc(C#CCN(C(=O)Cc2ncc(C(F)(F)F)cc2C(F)(F)F)c2ccc(F)cc2)nn1,IC50,second compound 0.0316 µM,7.22 nM
same,IC50,second compound 0.1 µM,6.75 nM
same,IC50,second compound 0.316 µM,5.8 nM
same,IC50,second compound 1 µM,5.89 nM
same,IC50,second compound 3.16 µM,5.87 nM
same,IC50,second compound 10 µM,7.34 nM
same,"viability, T/C","second compound 0.0316 µM, first compound 0.00316 µM",82.4%
same,"viability, T/C","second compound 0.0316 µM, first compound 0.01 µM",37.4%
same,"viability, T/C",[1],33.4%
same,"viability, T/C",[2],30.5%
same,"viability, T/C",[3],35.9%
same,"viability, T/C",[4],44.1%
same,"viability, T/C","second compound 0.1 µM, first compound 0.00316 µM",62.6%
same,"viability, T/C","second compound 0.1 µM, first compound 0.01 µM",45.9%
same,"viability, T/C",[7],33.6%
same,"viability, T/C",[8],32.8%
same,"viability, T/C",[9],36.8%
same,"viability, T/C",[10],54.3%
same,"viability, T/C","second compound 0.316 µM, first compound 0.00316 µM",60.3%
same,"viability, T/C","second compound 0.316 µM, first compound 0.01 µM",40.4%
same,"viability, T/C",[13],36.1%
same,"viability, T/C",[14],38.4%
same,"viability, T/C",[15],27.1%
same,"viability, T/C",[16],38%
same,"viability, T/C","second compound 1 µM, first compound 0.00316 µM",68.9%
same,"viability, T/C","second compound 1 µM, first compound 0.01 µM",33.9%
same,"viability, T/C",[19],35%
same,"viability, T/C",[20],38.6%
same,"viability, T/C",[21],30.6%
same,"viability, T/C",[22],29.4%
same,"viability, T/C","second compound 3.16 µM, first compound 0.00316 µM",59.2%
same,"viability, T/C","second compound 3.16 µM, first compound 0.01 µM",42.8%
same,"viability, T/C",[25],38.5%
same,"viability, T/C",[26],29%
same,"viability, T/C",[27],32.2%
same,"viability, T/C",[28],44.8%
same,"viability, T/C","second compound 10 µM, first compound 0.00316 µM",76.1%
same,"viability, T/C","second compound 10 µM, first compound 0.01 µM",40.1%
same,"viability, T/C",[31],37.4%
same,"viability, T/C",[32],36.5%
same,"viability, T/C",[33],29%
same,"viability, T/C",[34],38.6%
COc1cc(C2c3cc4c(cc3C(OC3OC5COC(C)OC5C(O)C3O)C3COC(=O)C23)OCO4)cc(OC)c1O (stereo unspecified) + Cc1cccc(N(C)C(=O)C2C(O)CCN2c2nc(C)cc(C(F)(F)F)c2C#N)c1,IC50,second compound 0.0316 µM,1230 nM
same,IC50,second compound 0.1 µM,1650 nM
same,IC50,second compound 0.316 µM,1360 nM
same,IC50,second compound 1 µM,735 nM
same,IC50,second compound 3.16 µM,714 nM
same,IC50,second compound 10 µM,876 nM
same,"viability, T/C",[1],96.8%
same,"viability, T/C",[2],84.3%
same,"viability, T/C",[3],69%
same,"viability, T/C",[4],53.5%
same,"viability, T/C",[5],37.9%
same,"viability, T/C",[6],33.2%
same,"viability, T/C",[7],101%
same,"viability, T/C",[8],92.9%
same,"viability, T/C",[9],63.3%
same,"viability, T/C",[10],58.6%
same,"viability, T/C",[11],44.2%
same,"viability, T/C",[12],31.8%
same,"viability, T/C",[13],110%
same,"viability, T/C",[14],92.7%
same,"viability, T/C",[15],68.8%
same,"viability, T/C",[16],50.6%
same,"viability, T/C",[17],47.7%
same,"viability, T/C",[18],35.8%
same,"viability, T/C",[19],105%
same,"viability, T/C",[20],94.7%
same,"viability, T/C",[21],61.8%
same,"viability, T/C",[22],46.5%
same,"viability, T/C",[23],38.5%
same,"viability, T/C",[24],29.7%
same,"viability, T/C",[25],103%
same,"viability, T/C",[26],88.8%
same,"viability, T/C",[27],56.6%
same,"viability, T/C",[28],49.6%
same,"viability, T/C",[29],40.1%
same,"viability, T/C",[30],33.7%
same,"viability, T/C",[31],91.5%
same,"viability, T/C",[32],77.1%
same,"viability, T/C",[33],56%
same,"viability, T/C",[34],49.9%
same,"viability, T/C",[35],45.1%
same,"viability, T/C",[36],37%
